Test results as given in patent publication US10590140B2, “Tetrahydropyrimidodiazepine and dihydropyridodiazepine compounds for treating pain and pain related conditions” (ESTEVE PHARMACEUTICALS, S.A., priority 2016, dated 2020).

What follows are compounds tested against human α2δ-1 subunit of Cav2.2 calcium channel (Homo sapiens (Human), UniProt P54289) (assay: Binding assay to human α2δ-1 subunit of Cav2.2 calcium channel ([3H]-Gabapentin)). Details: not given.
Summary of the method: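 Radioactivity on dried GF/C filters quantified by scintillation after filtration and three cold Tris-HCl (pH 7.4) washes. Incubation ran 60 min at 27° C with [3H]-gabapentin; 10 μM pregabalin gave nonspecific binding.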

Chain of human α2δ-1 subunit of Cav2.2 calcium channel (P54289 25-1103): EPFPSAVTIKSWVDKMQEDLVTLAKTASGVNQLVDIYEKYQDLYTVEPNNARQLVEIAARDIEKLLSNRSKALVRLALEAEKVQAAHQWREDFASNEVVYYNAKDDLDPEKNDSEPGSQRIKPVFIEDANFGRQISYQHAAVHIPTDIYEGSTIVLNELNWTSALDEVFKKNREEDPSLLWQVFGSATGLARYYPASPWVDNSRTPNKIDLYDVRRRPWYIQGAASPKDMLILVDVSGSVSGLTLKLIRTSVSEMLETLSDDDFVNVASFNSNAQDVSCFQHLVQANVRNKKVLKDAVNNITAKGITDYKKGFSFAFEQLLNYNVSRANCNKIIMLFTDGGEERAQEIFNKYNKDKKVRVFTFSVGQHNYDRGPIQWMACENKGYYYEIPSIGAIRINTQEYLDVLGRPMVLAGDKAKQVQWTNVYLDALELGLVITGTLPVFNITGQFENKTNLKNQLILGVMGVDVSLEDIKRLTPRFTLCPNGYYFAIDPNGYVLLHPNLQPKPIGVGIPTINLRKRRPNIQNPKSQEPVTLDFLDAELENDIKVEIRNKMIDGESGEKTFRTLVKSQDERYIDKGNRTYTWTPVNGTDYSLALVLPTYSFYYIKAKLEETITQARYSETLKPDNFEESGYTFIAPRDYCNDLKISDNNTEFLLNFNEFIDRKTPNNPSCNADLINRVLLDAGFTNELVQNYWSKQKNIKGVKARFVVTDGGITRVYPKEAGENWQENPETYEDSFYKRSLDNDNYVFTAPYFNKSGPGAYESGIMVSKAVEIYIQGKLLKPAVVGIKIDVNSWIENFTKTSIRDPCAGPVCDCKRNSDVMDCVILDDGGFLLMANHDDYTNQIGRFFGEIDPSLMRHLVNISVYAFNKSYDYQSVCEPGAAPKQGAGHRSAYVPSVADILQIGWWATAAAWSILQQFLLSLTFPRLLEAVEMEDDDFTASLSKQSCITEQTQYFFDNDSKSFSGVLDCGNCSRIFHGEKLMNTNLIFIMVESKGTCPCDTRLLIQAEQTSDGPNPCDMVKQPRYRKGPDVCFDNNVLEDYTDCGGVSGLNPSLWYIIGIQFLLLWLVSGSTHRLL

SMILES	Ki [nM]
CCNc1ncc2c(n1)N(C)CCN(c1cccc(-n3cc(CN4CCC(c5cccc(O)c5)(N(C)C)CC4)nn3)c1)C2=O [Example 293, 6-(3-(4-((4-(dimethylamino)-4-(3-hydroxyphenyl)piperidin-1-yl)methyl)-1H-1,2,3-triazol-1-yl)phenyl)-2-(ethylamino)-9-methyl-6,7,8,9-tetrahydro-5H-pyrimido[4,5-e] [1,4]diazepin-5-one]	100 to 500

Same assay, conditions: binding to α2δ-1, [3H]-Gabapentin; read-out: Ki (nM) α2δ-1

SMILES	Ki [nM]
CCNc1ncc2c(n1)N(C)CCN(c1cccc(-n3cc(CCN(C)C)nn3)c1)C2=O [Example 248, 6-(3-(4-(2-(dimethylamino)ethyl)-1H-1,2,3-triazol-1-yl)phenyl)-2-(ethylamino)-9-methyl-6,7,8,9-tetrahydro-5H-pyrimido[4,5-e][1,4]diazepin-5-one]	100 to 500
CCNc1ncc2c(n1)N(C)CCN(c1cccc(-n3cc(CN)nn3)c1)C2=O [Example 181, 6-(3-(4-(aminomethyl)-1H-1,2,3-triazol-1-yl)phenyl)-2-(ethylamino)-9-methyl-6,7,8,9-tetrahydro-5H-pyrimido[4,5-e][1,4]diazepin-5-one]	100 to 500
CSc1ncc2c(n1)N(C)CCN(c1cccc(OC(CN(C)C(=O)OC(C)(C)C)C(C)C)c1)C2=O (centres unmarked) [Example 7, tert-butyl methyl(3-methyl-2-(3-(9-methyl-2-(methylthio)-5-oxo-5,7,8,9-tetrahydro-6H-pyrimido[4,5-e][1,4]diazepin-6-yl)phenoxy)butyl) carbamate]	> 3000
CN(CC[C@@H](OCc1cccc(N2CCN(C)c3ncncc3C2=O)c1)c1ccccc1)C(=O)OC(C)(C)C [Example 145, tert-Butyl (R)-methyl(3-((3-(9-methyl-5-oxo-5,7,8,9-tetrahydro-6H-pyrimido[4,5-e][1,4]diazepin-6-yl)benzyl)oxy)-3-phenylpropyl)carbamate]	> 3000
CSc1ncc2c(n1)N(C)CCN(c1cccc(O[C@@H](CCN(C)C(=O)OC(C)(C)C)c3ccccc3)c1)C2=O [Example 3, tert-butyl (S)-methyl(3-(3-(9-methyl-2-(methylthio)-5-oxo-5,7,8,9-tetrahydro-6H-pyrimido[4,5-e][1,4]diazepin-6-yl)phenoxy)-3-phenylpropyl) carbamate]	> 3000
CCNc1ncc2c(n1)N(C)CCN(Cc1ccc(OC)cc1)C2 [Example 68, N-ethyl-6-(4-methoxybenzyl)-9-methyl-6,7,8,9-tetrahydro-5H-pyrimido[4,5-e][1,4]diazepin-2-amine]	> 3000
CNCC(Oc1ccccc1N1CCN(C)c2nc(SC)ncc2C1=O)c1ccccc1 (centres unmarked) [Example 319, 9-methyl-6-(2-(2-(methylamino)-1-phenylethoxy)phenyl)-2-(methylthio)-6,7,8,9-tetrahydro-5H-pyrimido[4,5-e][1,4]diazepin-5-one]	> 3000
CCNc1cc2c(cn1)C(=O)N(c1cccc(COC(CCNC)c3cccs3)c1)CCN2C (centres unmarked) [Example 228, 8-(ethylamino)-1-methyl-4-(3-((3-(methylamino)-1-(thiophen-2-yl)propoxy)methyl)phenyl)-1,2,3,4-tetrahydro-5H-pyrido[4,3-e][1,4]diazepin-5-one]	100 to 500
CCNc1ncc2c(n1)N(C)CCN(c1cccc(CCN(C)C(=O)OC(C)(C)C)c1)C2=O [Example 92, tert-butyl (3-(2-(ethylamino)-9-methyl-5-oxo-5,7,8,9-tetrahydro-6H-pyrimido[4,5-e][1,4]diazepin-6-yl)phenethyl)(methyl) carbamate]	> 3000
CCNc1ncc2c(n1)N(C)CCN(c1cccc(-n3cc(CN4CCC(c5cccc(O)c5)(N(C)C)CC4)cn3)c1)C2=O [Example 295, 6-(3-(4-((4-(dimethylamino)-4-(3-hydroxyphenyl)piperidin-1-yl)methyl)-1H-pyrazol-1-yl)phenyl)-2-(ethylamino)-9-methyl-6,7,8,9-tetrahydro-5H-pyrimido[4,5-e] [1,4]diazepin-5-one]	100 to 500
CCNc1ncc2c(n1)N(C)CCN(c1cccc(-n3cc(CN4CCc5ccccc5C4)nn3)c1)C2=O [Example 282, 6-(3-(4-((3,4-dihydroisoquinolin-2(1H)-yl)methyl)-1H-1,2,3-triazol-1-yl)phenyl)-2-(ethylamino)-9-methyl-6,7,8,9-tetrahydro-5H-pyrimido[4,5-e] [1,4]diazepin-5-one]	500 to 3000
CCNc1cc2c(cn1)C(=O)N(c1cccc(-c3nnc(C)o3)c1)CCN2C [Example 54, 8-(ethylamino)-1-methyl-4-(3-(5-methyl-1,3,4-oxadiazol-2-yl)phenyl)-1,2,3,4-tetrahydro-5H-pyrido[4,3-e][1,4]diazepin-5-one]	100 to 500
CN(CCC(Oc1cccc(N2CCN(C)c3nc(N(C)C)ncc3C2=O)c1)c1cccs1)C(=O)OCC[Si](C)(C)C (centres unmarked) [Example 133, 2-(trimethylsilyl)ethyl (3-(3-(2-(dimethylamino)-9-methyl-5-oxo-5,7,8,9-tetrahydro-6H-pyrimido[4,5-e][1,4]diazepin-6-yl)phenoxy)-3-(thiophen-2-yl)propyl)(methyl) carbamate]	> 3000
CCNc1ncc2c(n1)N(C)CCN(c1cccc(OC(CNC(=O)OC(C)(C)C)c3ccccc3)c1)C2=O (centres unmarked) [Example 73, tert-butyl (2-(3-(2-(ethylamino)-9-methyl-5-oxo-5,7,8,9-tetrahydro-6H-pyrimido[4,5-e][1,4]diazepin-6-yl)phenoxy)-2-phenylethyl)carbamate]	> 3000
CSc1ncc2c(n1)N(C)CCN(c1cccc(OC3CCN(C(=O)OC(C)(C)C)C3)c1)C2=O (centres unmarked) [Example 27, tert-butyl 3-(3-(9-methyl-2-(methylthio)-5-oxo-5,7,8,9-tetrahydro-6H-pyrimido[4,5-e][1,4]diazepin-6-yl)phenoxy) pyrrolidine-1-carboxylate]	> 3000
CN(CC[C@@H](OCc1cccc(N2CCN(C)c3nc(N)ncc3C2=O)c1)c1ccccc1)C(=O)OC(C)(C)C [Example 130, tert-butyl (R)-(3-((3-(2-amino-9-methyl-5-oxo-5,7,8,9-tetrahydro-6H-pyrimido[4,5-e][1,4]diazepin-6-yl)benzyl)oxy)-3-phenylpropyl)(methyl) carbamate]	> 3000
CCNc1ncc2c(n1)N(C)CCN(c1cccc(C3=CCN(C(=O)OC(C)(C)C)CC3)c1)C2=O [Example 233, tert-Butyl 4-(3-(2-(ethylamino)-9-methyl-5-oxo-5,7,8,9-tetrahydro-6H-pyrimido[4,5-e][1,4]diazepin-6-yl)phenyl)-3,6-dihydropyridine-1(2H)-carboxylate]	> 3000
CCNc1ncc2c(n1)N(C)CCN(c1cccc(Br)c1)C2=O [Example 311, 6-(3-bromophenyl)-2-(ethylamino)-9-methyl-6,7,8,9-tetrahydro-5H-pyrimido[4,5-e][1,4]diazepin-5-one]	500 to 3000
CNCCC(Oc1ccccc1CN1CCN(C)c2nc(SC)ncc2C1=O)c1ccccc1 (centres unmarked) [Example 370, 9-methyl-6-(2-(3-(methylamino)-1-phenylpropoxy)benzyl)-2-(methylthio)-6,7,8,9-tetrahydro-5H-pyrimido[4,5-e][1,4]diazepin-5-one]	> 3000
CCNc1ncc2c(n1)N(C)CCN(c1cccc(-n3cc(CCN(C)Cc4ccccc4)nn3)c1)C2=O [Example 247, 6-(3-(4-(2-(benzyl(methyl)amino)ethyl)-1H-1,2,3-triazol-1-yl)phenyl)-2-(ethylamino)-9-methyl-6,7,8,9-tetrahydro-5H-pyrimido[4,5-e][1,4]diazepin-5-one]	500 to 3000
CCNc1ncc2c(n1)N(C)CCN(Cc1ccccc1COC(CCNC)c1ccccc1)C2=O (centres unmarked) [Example 404, 2-(ethylamino)-9-methyl-6-(2-((3-(methylamino)-1-phenylpropoxy)methyl)benzyl)-6,7,8,9-tetrahydro-5H-pyrimido[4,5-e][1,4]diazepin-5-one]	> 3000
CCNc1ncc2c(n1)N(C)CCN(c1cccc(OC(C)CNC)c1)C2=O (centres unmarked) [Example 157, 2-(ethylamino)-9-methyl-6-(3-((1-(methylamino)propan-2-yl)oxy)phenyl)-6,7,8,9-tetrahydro-5H-pyrimido[4,5-e][1,4]diazepin-5-one]	500 to 3000
CSc1ncc2c(n1)N(C)CCN(Cc1ccc(CN(C)C(=O)OC(C)(C)C)cc1)C2=O [Example 64, tert-butyl methyl(4-((9-methyl-2-(methylthio)-5-oxo-5,7,8,9-tetrahydro-6H-pyrimido[4,5-e][1,4]diazepin-6-yl)methyl)benzyl) carbamate]	> 3000
CCNc1ncc2c(n1)N(C)CCN(c1cccc(OCCN(C)C(=O)OC(C)(C)C)c1)C2=O [Example 90, tert-butyl (2-(3-(2-(ethylamino)-9-methyl-5-oxo-5,7,8,9-tetrahydro-6H-pyrimido[4,5-e][1,4]diazepin-6-yl)phenoxy)ethyl) (methyl)carbamate]	> 3000
CCNc1ncc2c(n1)N(C)CCN(c1cccc(CCOS(=O)(=O)c3ccc(C)cc3)c1)C2=O [Example 274, 3-(2-(Ethylamino)-9-methyl-5-oxo-5,7,8,9-tetrahydro-6H-pyrimido[4,5-e][1,4]diazepin-6-yl)phenethyl 4-methylbenzenesulfonate]	> 3000
CSc1ncc2c(n1)N(C)CCN(c1cccc(OC(CCN(C)C(=O)OC(C)(C)C)c3ccccn3)c1)C2=O (centres unmarked) [Example 52, tert-butyl methyl(3-(3-(9-methyl-2-(methylthio)-5-oxo-5,7,8,9-tetrahydro-6H-pyrimido[4,5-e][1,4]diazepin-6-yl)phenoxy)-3-(pyridin-2-yl)propyl) carbamate]	> 3000
CSc1ncc2c(n1)N(C)CCN(c1cccc(CCCN(C)C(=O)OC(C)(C)C)c1)C2=O [Example 23, tert-butyl methyl(3-(3-(9-methyl-2-(methylthio)-5-oxo-5,7,8,9-tetrahydro-6H-pyrimido[4,5-e][1,4]diazepin-6-yl)phenyl)propyl) carbamate]	> 3000
CCNc1ncc2c(n1)N(C)CCN(c1cccc(-n3cnc(CN(C)C(=O)OC(C)(C)C)c3)c1)C2=O [Example 123, tert-butyl ((1-(3-(2-(ethylamino)-9-methyl-5-oxo-5,7,8,9-tetrahydro-6H-pyrimido[4,5-e][1,4]diazepin-6-yl)phenyl)-1H-imidazol-4-yl)methyl)(methyl) carbamate]	> 3000
